Source: ChEMBL document CHEMBL1201862, “PubChem BioAssay data set” (2004)
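These data come from cells grown in 96-well plates and exposed to compound for 48 hours at five concentrations. GI50 = concentration required for 50% inhibition of growth.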 Active and inactive are the calls of the source. Cut-off read from the data, not from the text of the source: active = GI50 up to about 1.1 µM and inactive = higher.

Assays:
Assay in all cases: NCI-60 cell line screen, 48 h
RXF 393 = tested on: RXF 393
SW-620 = tested on: SW-620
UACC-62 = tested on: UACC-62
OVCAR-4 = tested on: OVCAR-4
HCC 2998 = tested on: HCC 2998
KM12 = tested on: KM12
HT-29 = tested on: HT-29
UO-31 = tested on: UO-31
RPMI-8226 = tested on: RPMI-8226
TK-10 = tested on: TK-10
SK-MEL-5 = tested on: SK-MEL-5
K562 = tested on: K562
HCT-116 = tested on: HCT-116
NCI-H460 = tested on: NCI-H460
NCI/ADR-RES = tested on: NCI/ADR-RES
MOLT-4 = tested on: MOLT-4
NCI-H522 = tested on: NCI-H522
MDA-MB-435 = tested on: MDA-MB-435
BT-549 = tested on: BT-549

| Structure (SMILES) | GI50 (RXF 393) | GI50 (SW-620) | GI50 (UACC-62) | GI50 (OVCAR-4) | GI50 (HCC 2998) | GI50 (KM12) | GI50 (HT-29) | GI50 (UO-31) | GI50 (RPMI-8226) | GI50 (TK-10) | GI50 (SK-MEL-5) | GI50 (K562) | GI50 (HCT-116) | GI50 (NCI-H460) | GI50 (NCI/ADR-RES) | GI50 (MOLT-4) | GI50 (NCI-H522) | GI50 (MDA-MB-435) | GI50 (BT-549) |
| --- | --- | --- | --- | --- | --- | --- | --- | --- | --- | --- | --- | --- | --- | --- | --- | --- | --- | --- | --- |
| COc1ccc(/C=C2\OC(=O)C(Cl)=C2c2ccc(OC)c(Cl)c2)cc1 | 12 µM (inactive) | 36.6 µM (inactive) | 26.5 µM (inactive) | 20.3 µM (inactive) | 35.3 µM (inactive) | 28.7 µM (inactive) | 43.2 µM (inactive) | 22 µM (inactive) | 24.9 µM (inactive) | 21.7 µM (inactive) | 17.3 µM (inactive) | 56.1 µM (inactive) | 39.1 µM (inactive) | 22.6 µM (inactive) | 21.4 µM (inactive) | 48.9 µM (inactive) | 25.3 µM (inactive) | 23.8 µM (inactive) | – |
| Cc1cc(C)c(S(=O)(=O)N2CCCN(S(=O)(=O)c3c(C)cc(C)cc3C)OCCCO2)c(C)c1 | > 100 µM (inactive) | > 100 µM (inactive) | > 100 µM (inactive) | 79.4 µM (inactive) | – | > 100 µM (inactive) | > 100 µM (inactive) | > 100 µM (inactive) | – | > 100 µM (inactive) | > 100 µM (inactive) | > 100 µM (inactive) | > 100 µM (inactive) | > 100 µM (inactive) | > 100 µM (inactive) | > 100 µM (inactive) | > 100 µM (inactive) | > 100 µM (inactive) | > 100 µM (inactive) |
| N#Cc1c(-c2ccc(Cl)cc2)c(C#N)c(=O)n(NS(=O)(=O)c2ccccc2)c1-c1ccccc1 | > 25 µM (inactive) | > 25 µM (inactive) | > 25 µM (inactive) | > 25 µM (inactive) | > 25 µM (inactive) | – | – | – | 17.2 µM (inactive) | > 25 µM (inactive) | > 25 µM (inactive) | > 25 µM (inactive) | > 25 µM (inactive) | > 25 µM (inactive) | – | > 25 µM (inactive) | – | > 25 µM (inactive) | > 25 µM (inactive) |
| COc1ccc(C(C)Nc2cc(OC)c(OC)c(OC)c2)cc1 (centres undefined) | 3.27 µM (inactive) | 2.88 µM (inactive) | 2.91 µM (inactive) | 6.43 µM (inactive) | 10.3 µM (inactive) | 2.63 µM (inactive) | 3.57 µM (inactive) | 10.5 µM (inactive) | 3.86 µM (inactive) | > 29.7 µM (inactive) | 2.54 µM (inactive) | 2.19 µM (inactive) | 3.58 µM (inactive) | 3.03 µM (inactive) | – | 4.61 µM (inactive) | 2.51 µM (inactive) | – | – |
| COc1ccc(C[N+]23C(CC[C@H]2c2ccccc2)CC[C@H]3c2ccccc2)cc1 (some centres undefined) | 13.8 µM (inactive) | 28.2 µM (inactive) | – | 13.1 µM (inactive) | – | 10.4 µM (inactive) | 12.2 µM (inactive) | 31.9 µM (inactive) | 2.8 µM (inactive) | 44.9 µM (inactive) | 4.43 µM (inactive) | 6.46 µM (inactive) | 24.5 µM (inactive) | – | – | 21.6 µM (inactive) | 8.73 µM (inactive) | 9.84 µM (inactive) | – |
| CCOC(=O)c1cc(=O)n(C)c(=O)n1C | > 100 µM (inactive) | > 100 µM (inactive) | > 100 µM (inactive) | > 100 µM (inactive) | > 100 µM (inactive) | > 100 µM (inactive) | > 100 µM (inactive) | > 100 µM (inactive) | – | > 100 µM (inactive) | > 100 µM (inactive) | > 100 µM (inactive) | > 100 µM (inactive) | > 100 µM (inactive) | – | > 100 µM (inactive) | > 100 µM (inactive) | – | – |
| CS/C(C#N)=C(\C#N)SC | 1.82 µM (inactive) | 4.47 µM (inactive) | 2.94 µM (inactive) | 13.4 µM (inactive) | 2.99 µM (inactive) | 13.9 µM (inactive) | 16.1 µM (inactive) | 4.18 µM (inactive) | 1.88 µM (inactive) | 6.55 µM (inactive) | 18.2 µM (inactive) | 4.11 µM (inactive) | 20.9 µM (inactive) | 21.4 µM (inactive) | 18.8 µM (inactive) | 0.233 µM (active) | 1.42 µM (inactive) | 14 µM (inactive) | – |
| COc1cccc(N2C(=O)CS(=O)(=O)C2c2cccc(Oc3ccccc3)c2)c1 (centres undefined) | 16.5 µM (inactive) | 15.6 µM (inactive) | 6.1 µM (inactive) | 28.6 µM (inactive) | – | 7.67 µM (inactive) | 13.1 µM (inactive) | 34.4 µM (inactive) | – | 16.5 µM (inactive) | 7.11 µM (inactive) | 3.6 µM (inactive) | 11.1 µM (inactive) | 13.6 µM (inactive) | 9.42 µM (inactive) | 21.3 µM (inactive) | 6.53 µM (inactive) | 3.56 µM (inactive) | 20.1 µM (inactive) |
